For 1 compound, EC50, EC90 and CC50 results are on record in US20170029451A1, “BRANCHED CHAIN ACYCLIC NUCLEOSIDE PHOSPHONATE ESTERS AND METHODS OF SYNTHESIS AND USES THEREOF” (CHIMERIX, INC., priority 2013, published 2017).

Data set [1] relates to HCMV UL54 resistant mutant GDG^RP53. Description: microbe, parasite or virus in culture. The class given is cell-based, Human Cytomegalovirus (HCMV). The settings on record: Human betaherpesvirus 5, Fibroblast.
Data set [2] has as its system HCMV UL54 resistant mutant 4955^R. Nature of the data set: microbe, parasite or virus in culture. The class given is cell-based, Human Cytomegalovirus (HCMV). The following applies: Human betaherpesvirus 5, Fibroblast.
Data set [3] has as its system Cowpox Virus (Strain Brighton). Nature of the data set: microbe, parasite or virus in culture. The class given is cell-based. The settings on record: Fibroblast, read-out: CPXV EC50, μM.
The nature of data set [4]: Cytotoxicity (CC50) in MRC-5 cells. The class given is cell-based. The following applies: human, cell line MRC5 (HCMV row). As for the experimental part: (§1) Costar 96-well tissue culture plates were seeded with 20,000 MRC-5 cells (ATCC)/well in EMEM (ATCC, Cat 30-2003) containing 2% Hyclone Standard Fetal Bovine Serum (FBS, Cat 5H30088.03) and 1% Hyclone Penicillin and Streptomycin (Cat SV30010). Outer wells were not used to minimize the edge-effect produced by extended incubations. Serial dilutions of test compounds were added to the cells and plates were incubated for 7 days at 37° C. in 5% CO2. After 7 days of incubation 40 μL of Cell Titer 96® Aqueous MTS Reagent (Promega, G111) was added as directed by manufacturer to the 200 iut media in each well and incubated at 37° C. until the untreated-cell controls developed an 490 nm absorbance between 1.1 and 1.8. The final absorbance readings were read using a BioTek Synergy 2, and Gen 5 software (BioTek Instruments, Inc.) was used to calculate the concentration which inhibited MRC-5 cells by 50% (CC50).

A short description of data set [5]: Cytotoxicity (CC50) in Vero cells. It is filed as cell-based. The following applies: African green monkey, cell line Vero (BKV row). The procedure:
as §1, with “10,000 Vero” for “20,000 MRC-5”, “DMEM” for “EMEM”, “30-2002)” for “30-2003)”, “Vero” for “MRC-5”

Data set [6] deals with HBV. Description: HBV antiviral activity in 2.2.15 cells. The class given is cell-based. The following applies: Hepatitis B virus, cell line 2.2.15.
Data set [7] deals with Poliovirus 3. Description: microbe, parasite or virus in culture. It is filed as cell-based. The settings on record: Enterovirus C, Vero 76.
The test system of data set [8] is HHV-6B. Nature of the data set: DNA hybridization assay for HHV-6B in MOLT-3 cells. It is filed as cell-based, human herpes virus 6 (HHV-6). The following applies: Homo sapiens; Virus HHV-6B, cell line MOLT-3. As for the experimental part:
Assays for EBV were performed in Akata cells that were induced to undergo a lytic infection with 50 μg/ml of a goat anti-human IgG antibody by standard methods. Experimental compounds were diluted in round bottom 96-well plates to yield concentrations ranging from 20 to 0.016 μM. Akata cells were added to the plates at a concentration of 4×10^4 cells per well and incubated for 72 h. For HHV-6 assays, compounds were serially diluted in 96-well plates then 1×10^4 uninfected HSB-2 or Molt-3 cells were added to each well. Infection was initiated by adding HHV-6A infected HSB-2 cells, or HHV-6B infected Molt-3 cells, at a ratio of approximately 1 infected cell for every 10 uninfected HSB-2 cells or Molt-3 cells respectively and incubated for 7 d at 37° C.
For all assays, 100 µl of denaturation buffer (1.2M NaOH, 4.5M […] NaCl) was added to each well to denature the DNA and a […] aliquot was aspirated through an Immobilon nylon membrane (Millipore, Bedford, Mass.) using a Biodot apparatus (Bio-Rad, Hercules, Calif.). The membranes were then allowed to dry before equilibration in DIG Easy Hyb (Roche Diagnostics, Indianapolis, Ind.) at 56° C. for 30 min. Specific digoxigenin (DIG)-labeled probes were prepared for each virus according to the manufacturer's protocol (Roche Diagnostics). […]

The nature of data set [9]: in vitro. The settings on record: human.
A short description of data set [10]: CellTiter-Glo cytotoxicity assay in Akata cells. The settings on record: human. (In ATP-based viability assays light output follows the ATP content of the culture.)
Data set [11] concerns human foreskin fibroblast cells. Description: Neutral red cytotoxicity assay in human foreskin fibroblast cells. The settings on record: read-out: VACV CC50, μm, parallel to VACV assay (second printing of Table 4).

For orientation: EC50 means the concentration at which the effect is half-maximal. Broadly, the EC90 is the point of the concentration-response curve where the effect stands at 90%. On to `CC(C)CCCCCCCCCCCCCCOCCCOP(=O)(O)COC(CO)Cn1ccc(=O)[nH]c1=O` (stereo not drawn) [Compound 12], for which the EC50 was approximately 0.171 µM in data set [1] (read-out: EC50 μM, Virus GDG^RP53, human foreskin fibroblast cells); approximately 0.143 µM in data set [2] (read-out: EC50 μM, Virus 4955^R, human foreskin fibroblast cells); more than 10 µM in data set [3]; 3 µM in data set [6]; 3.3 µM in data set [7]; 4.7 µM in data set [8]. For the same compound, the EC90 in data set [1] (read-out: EC90 μM) worked out at 1.55 µM; in data set [2] (read-out: EC90 μM) it was 0.372 µM. In addition, the results for the CC50 at 7 days in data set [4] and in data set [5] were 50 µM and 93 µM, respectively. Besides, the CC50 in data set [9] (CPXV CC50, μM, Human Foreskin Fibroblast Cells, parallel to CPXV assay) was more than 10 µM; in data set [9] (HCMV CC50, μM), more than 50 µM; in [9] (HSV-1 CC50, μM), more than 50 µM; in data set [10], 18 µM; in [11] it was more than 10 µM.
